From US8173689B2 (Novartis AG, priority 2006, dated 2012)
Where two headings read alike, the source gives them in different places.

How the values were obtained:
[1] = target: T1, cytoplasmic domain of the human CSF-1R (Homo sapiens, UniProt P07333); experiment: In vitro kinase assay for colony stimulating factor-1 receptor (AlphaScreen); format: biochemical; settings: tested at about 1 μM; for inhibition at 1 µM: read-out: CSF-1R percent inhibition
T1 construct: Recombinant protein corresponding to the cytoplasmic domain of the human CSF-1R; purchased Invitrogen Corporation, Carlsbad, Calif; PV3249
T1 sequence (P07333 539-972 limits assumed): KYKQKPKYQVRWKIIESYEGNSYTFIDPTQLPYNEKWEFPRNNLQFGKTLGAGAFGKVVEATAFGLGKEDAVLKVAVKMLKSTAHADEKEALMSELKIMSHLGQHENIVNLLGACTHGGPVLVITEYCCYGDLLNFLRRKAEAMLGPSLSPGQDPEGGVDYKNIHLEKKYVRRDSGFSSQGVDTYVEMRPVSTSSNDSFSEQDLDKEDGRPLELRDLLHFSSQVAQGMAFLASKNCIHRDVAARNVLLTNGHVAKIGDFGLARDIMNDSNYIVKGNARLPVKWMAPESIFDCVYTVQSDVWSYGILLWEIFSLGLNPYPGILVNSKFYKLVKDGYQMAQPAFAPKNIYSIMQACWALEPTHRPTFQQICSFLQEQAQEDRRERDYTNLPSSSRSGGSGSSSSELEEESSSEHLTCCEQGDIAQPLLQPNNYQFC
Procedure, shortened: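 4 nM enzyme, 1 μM ATP; buffer 50 mM Hepes pH 7.5, 5 mM MgCl2, 10 mM MnCl2, 1.0 mM DTT, 0.1% BSA, 0.01% Tween 80. Readout: AlphaScreen, PT66 acceptor/streptavidin donor, overnight.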

[2] = target: T2, full-length human CSF-1R receptor (Homo sapiens, UniProt P07333); experiment: In vitro inhibition of CSF-1R receptor tyrosine phosphorylation in transfected HEK293H cells stimulated with MCSF; format: cell-based; settings: tested at about 1 μM; for inhibition at 1 µM: HEK293-H, read-out: pCSF1R percent inhibition
T2 construct: transfected with the full-length human CSF-1R receptor cloned in house; expressed in transfected cells; host or cells: HEK293H (Invitrogen Cat. #11631017)
T2 sequence (P07333 20-972): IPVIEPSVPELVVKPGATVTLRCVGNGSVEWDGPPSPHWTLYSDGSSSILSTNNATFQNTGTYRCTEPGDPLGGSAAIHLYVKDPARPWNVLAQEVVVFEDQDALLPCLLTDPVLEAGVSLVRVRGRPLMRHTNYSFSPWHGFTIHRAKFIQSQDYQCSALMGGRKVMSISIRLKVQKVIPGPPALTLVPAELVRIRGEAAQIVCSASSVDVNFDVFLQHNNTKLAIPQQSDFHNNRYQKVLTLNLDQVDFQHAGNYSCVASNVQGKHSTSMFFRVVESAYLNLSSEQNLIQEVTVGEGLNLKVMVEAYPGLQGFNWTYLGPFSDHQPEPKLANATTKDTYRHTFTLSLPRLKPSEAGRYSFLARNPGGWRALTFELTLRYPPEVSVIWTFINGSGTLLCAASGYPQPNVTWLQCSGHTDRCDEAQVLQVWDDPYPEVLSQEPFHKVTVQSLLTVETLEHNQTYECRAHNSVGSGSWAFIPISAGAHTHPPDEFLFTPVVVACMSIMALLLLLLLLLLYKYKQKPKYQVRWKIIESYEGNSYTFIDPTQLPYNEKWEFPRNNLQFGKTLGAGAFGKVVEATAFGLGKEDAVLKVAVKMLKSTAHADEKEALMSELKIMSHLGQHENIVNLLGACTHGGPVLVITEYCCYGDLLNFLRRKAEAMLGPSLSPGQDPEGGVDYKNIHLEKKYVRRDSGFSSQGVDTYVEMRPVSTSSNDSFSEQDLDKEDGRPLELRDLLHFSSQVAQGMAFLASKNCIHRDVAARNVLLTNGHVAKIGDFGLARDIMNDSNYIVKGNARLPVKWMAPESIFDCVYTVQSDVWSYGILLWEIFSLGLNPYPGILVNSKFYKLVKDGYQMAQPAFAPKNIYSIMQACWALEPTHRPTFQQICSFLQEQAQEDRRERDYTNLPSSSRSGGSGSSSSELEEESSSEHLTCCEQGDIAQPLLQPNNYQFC
Description: The lysate was then transferred to total CSF-1R antibody coated 96-well plates that had already been blocked with 3% Blocker A from Mesoscale discovery (MSD) for 2 hours and washed afterwards. Lysates were incubated overnight at 4° C. and the plates were then washed 4× with MSD Tris Wash Buffer. […] The plates were read on the Sector 6000 instrument (MSD). Raw data was imported in Abase and EC50s calculated with XL-fit data analysis software.

kinase domain of cKIT = target: T3, kinase domain of cKIT (Homo sapiens, UniProt P10721); experiment: Inhibition of cKIT kinase signaling in an in vitro biochemical assay (alphascreen); settings: tested at about 1 μM; for inhibition at 1 µM: read-out: cKit percent inhibition
T3 construct: The kinase domain of cKIT was assayed in 50 mM Hepes; purchased Upstate 14-559
T3 sequence (P10721 589-937 limits assumed): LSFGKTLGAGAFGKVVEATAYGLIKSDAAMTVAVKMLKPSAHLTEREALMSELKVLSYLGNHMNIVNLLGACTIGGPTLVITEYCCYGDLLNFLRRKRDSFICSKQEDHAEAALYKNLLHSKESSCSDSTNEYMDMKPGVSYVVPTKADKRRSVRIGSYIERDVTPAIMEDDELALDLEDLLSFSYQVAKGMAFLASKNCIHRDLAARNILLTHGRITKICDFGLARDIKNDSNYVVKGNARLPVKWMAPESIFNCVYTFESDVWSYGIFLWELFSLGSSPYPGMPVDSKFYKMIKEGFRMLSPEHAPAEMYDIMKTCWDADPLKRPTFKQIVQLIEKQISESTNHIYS

kinase domain of PDGFRβ = target: T4, kinase domain of PDGFRβ (Homo sapiens, UniProt P09619); experiment: Inhibition of PDGFRb kinase signaling in an in vitro biochemical assay (alphascreen); settings: tested at about 1 μM; for inhibition at 1 µM: read-out: PDGFRβ percent inhibition
T4 construct: The kinase domain of PDGFRβ was assayed in 50 mM Hepes; purchased Invitrogen P3082
T4 sequence (P09619 600-962 limits assumed): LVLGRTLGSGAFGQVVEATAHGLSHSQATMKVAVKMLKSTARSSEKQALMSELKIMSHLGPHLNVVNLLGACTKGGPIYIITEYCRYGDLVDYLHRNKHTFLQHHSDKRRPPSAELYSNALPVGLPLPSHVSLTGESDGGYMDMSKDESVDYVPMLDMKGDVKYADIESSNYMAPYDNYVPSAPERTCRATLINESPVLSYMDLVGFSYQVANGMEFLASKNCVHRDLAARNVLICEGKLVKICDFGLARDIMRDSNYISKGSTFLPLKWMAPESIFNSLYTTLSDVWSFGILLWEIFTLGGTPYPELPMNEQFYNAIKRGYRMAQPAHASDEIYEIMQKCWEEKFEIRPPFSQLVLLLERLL

[3] = tested on: MNFS60 (murine AML cells); experiment: Cell viability assay in MCSF dependent MNFS60 cells (Cell Titer Glo); format: cell-based; settings: tested at about 1 μM; for inhibition at 1 µM: Mus musculus, read-out: M-NFS-60 CP percent inhibition
Procedure, shortened: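 Compounds were serially diluted 3-fold in DMSO to 500× final and added to cells with MCSF at 10 ng/ml final. After 72 hrs at 37° C. under 5% CO2, viable cells were quantified by CellTiter-Glo luminescence; triplicate wells gave EC50 values by curve fitting.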

Row | Compound | inhibition at 1 µM ([1]; compounds of Table 3) | inhibition at 1 µM ([2]; compounds of Table 3) | inhibition at 1 µM (kinase domain of cKIT; compounds of Table 3) | inhibition at 1 µM (kinase domain of PDGFRβ; compounds of Table 3) | inhibition at 1 µM [1] | inhibition at 1 µM ([2]; HEK293H cells) | inhibition at 1 µM (kinase domain of cKIT) | inhibition at 1 µM (kinase domain of PDGFRβ) | inhibition at 1 µM ([3]; compounds of Table 3) | inhibition at 1 µM ([3]; MNFS60 cells) | also measured
1 | CC(C)Cn1cc(-c2cc(Oc3ccc4nc(N[C@@H]5CCCC[C@H]5O)sc4c3)ccn2)cn1 [Example 359, (1R,2R)-2-(6-(2-(1-isobutyl-1H-pyrazol-4-yl)pyridin-4-yloxy)benzo[d]thiazol-2-ylamino)cyclohexanol] |  |  |  |  | 100% | 93% | 31% | 19% |  |  | inhibition at 1 µM ([3]; MCSF dependent MNFS60 cells): 95%
2 | 4-[2-(2-Chloro- benzylamino)-benzooxazol- 6-yloxy]-pyridin-2- carboxylic acid methylamide [Compound 8] |  |  |  |  |  |  |  |  |  |  | CSF-1R percent inhibition ([1]; compounds of Table 4): 100%; pCSF1R percent inhibition ([2]; compounds of Table 4): 98%; cKit percent inhibition (kinase domain of cKIT; compounds of Table 4): 25%; PDGFRβ percent inhibition (kinase domain of PDGFRβ; compounds of Table 4): 35%; M-NFS-60 CP percent inhibition ([3]; compounds of Table 4): 100%
3 | CC(C)(C)[C@@H](CO)Nc1nc2ccc(Oc3ccnc4ccccc34)cc2s1 [Example 248, (S)-3,3-dimethyl-2-(6-(quinolin-4-yloxy)benzo[d]thiazol-2-ylamino)butan-1-ol] | 100% | 39% | 33% | 41% |  |  |  |  | 51% |  | 
4 | O[C@@H]1CCCC[C@H]1Nc1nc2ccc(Oc3ccnc4c(F)cccc34)cc2s1 [Example 263, (1R,2R)-2-(6-(8-fluoroquinolin-4-yloxy)benzo[d]thiazol-2-ylamino)cyclohexanol] | 99% | 24% | 12% | 0% |  |  |  |  | 22% |  | 
5 | CNC(=O)c1cc(Oc2ccc3nc(NCc4ccc5c(c4)CCO5)oc3c2)ccn1 [Compound 124, 4-{2-[(2,3-Dihydro-benzofuran-5-ylmethyl)-amino]-benzooxazol-6-yloxy}-pyridine-2-carboxylic acid methylamide] |  |  |  |  | 99% | 94% | 32% | 0% |  | 51% | 
6 | CNC(=O)c1cc(Oc2ccc3nc(NCc4cccc(Cl)c4Cl)sc3c2)ccn1 [Compound 134, 4-[2-(2,3-Dichloro-benzylamino)-benzothiazol-6-yloxy]-pyridine-2-carboxylic acid methylamide] |  |  |  |  | 98% | 93% | 98% | 0% |  | 93% | 
7 | CNC(=O)c1cc(Oc2ccc3nc(NC4CCCC(C)C4)sc3c2)ccn1 (centres unmarked) [Compound 136, 4-[2-(3-Methyl-cyclohexyl-amino)-benzothiazol-6-yloxy]-pyridine-2-carboxylic acid methylamide] |  |  |  |  | 100% | 97% | 88% | 84% |  | 100% | 
8 | CCCc1nc(-c2cc(Oc3ccc4nc(N[C@@H]5CCCC[C@H]5O)sc4c3)ccn2)[nH]c1C [Example 267, (1R,2R)-2-(6-(2-(5-methyl-4-propyl-1H-imidazol-2-yl)pyridin-4-yloxy)benzo[d]thiazol-2-ylamino)cyclohexanol] | 100% | 96% | 16% | 26% |  |  |  |  | 100% |  | 
9 | CNC(=O)c1cc(Oc2ccc3nc(N[C@@H](C)c4ccccc4OC)sc3c2)ccn1 [Example 328, (S)-4-(2-(1-(2-methoxyphenyl)ethylamino)benzo[d]thiazol-6-yloxy)-N-methylpicolinamide] |  |  |  |  | 100% | 80% | 14% | 0% |  |  | inhibition at 1 µM ([3]; MCSF dependent MNFS60 cells): 63%
10 | O[C@@H]1CCCC[C@H]1Nc1nc2ccc(Oc3ccnc(-c4ccnc(F)c4)c3)cc2s1 [Cmpd 171, (1R,2R)-2-(6-(2'-fluoro-2,4'-bipyridin-4-yloxy)benzo[d]thiazol-2-ylamino)cyclohexanol] | 100% | 95% | 25% | 18% |  |  |  |  | 96% |  | 
11 | Cn1cc(-c2cc(Oc3ccc4nc(N[C@H]5CCCc6ccccc65)sc4c3)ccn2)cn1 [Example 362, (S)-6-(2-(1-methyl-1H-pyrazol-4-yl)pyridin-4-yloxy)-N-(1,2,3,4-tetrahydronaphthalen-1-yl)benzo[d]thiazol-2-amine] |  |  |  |  | 100% | 100% | 99% | 92% |  |  | inhibition at 1 µM ([3]; MCSF dependent MNFS60 cells): 100%

Second part, led by results:

Row | inhibition at 1 µM ([1]; compounds of Table 3) | inhibition at 1 µM ([2]; compounds of Table 3) | inhibition at 1 µM (kinase domain of cKIT; compounds of Table 3) | inhibition at 1 µM (kinase domain of PDGFRβ; compounds of Table 3) | inhibition at 1 µM [1] | inhibition at 1 µM ([2]; HEK293H cells) | inhibition at 1 µM (kinase domain of cKIT) | inhibition at 1 µM (kinase domain of PDGFRβ) | Compound | inhibition at 1 µM ([3]; compounds of Table 3) | inhibition at 1 µM ([3]; MNFS60 cells) | also measured
12 | 100% | 88% | 0% | 9% |  |  |  |  | CNC(=O)c1cc(Oc2ccc3nc(N[C@H](CO)C(C)C)sc3c2)ccn1 [Compound 102] | 75% |  | 
13 |  |  |  |  | 97% | 0% | 8% | 1% | CNC(=O)c1cc(Oc2ccc3nc(N[C@@H](CO)C4CCCCC4)oc3c2)ccn1 [Compound 67, 4-[2-((R)-1-Cyclohexyl-2-hydroxy-ethylamino)-benzo-oxazol-6-yloxy]-pyridine-2-carboxylic acid methylamide] |  | 10% | 
14 | 100% | 97% | 39% | 26% |  |  |  |  | C[C@H](Nc1nc2ccc(Oc3ccnc(-c4ccc(N)nc4)c3)cc2s1)C1CCCCC1 [Example 276, (S)-6-(6'-amino-2,3'-bipyridin-4-yloxy)-N-(1-cyclohexylethyl)benzo[d] thiazol-2-amine] | 100% |  | 
15 |  |  |  |  | 99% | 84% | 99% | 5% | CNC(=O)c1cc(Oc2ccc3nc(NCc4ccccc4C(F)(F)F)oc3c2)ccn1 [Compound 97, 4-[2-(2-Trifluoromethyl-benzylamino)-benzooxazol-6-yloxy]-pyridine-2-carboxylic acid methylamide] |  | 67% | 
16 | 100% | 95% | 32% | 57% |  |  |  |  | CNC(=O)c1cc(Oc2ccc3nc(N[C@@H]4CCCC[C@H]4CO)sc3c2)ccn1 [Example 299, 4-(2-((1R,2R)-2-(hydroxymethyl)cyclohexyl-amino)benzo[d]thiazol-6-yloxy)-N-methylpicolinamide] | 94% |  | 
17 |  |  |  |  | 100% | 45% | 35% | 0% | CNC(=O)c1cc(Oc2ccc3nc(NC(C)c4cccc5c4OCCO5)oc3c2)ccn1 (centres unmarked) [Compound 125, 4-{2-[1-(2,3-Dihydro-benzo-[1,4]dioxin-5-yl)-ethylamino]-benzooxazol-6-yloxy}-pyridine-2-carboxylic acid methylamide] |  | 44% | 
18 |  |  |  |  | 100% | 94% | 21% | 0% | CNC(=O)c1cc(Oc2ccc3nc(NCc4cc(F)ccc4F)sc3c2)ccn1 [Compound 139, 4-[2-(2,5-Difluoro-benzylamino)-benzothiazol-6-yloxy]-pyridine-2-carboxylic acid methylamide] |  | 48% | 
19 | 100% | 65% | 6% | 14% |  |  |  |  | O[C@@H]1CCCC[C@H]1Nc1nc2ccc(Oc3ccnc4cc(OC(F)(F)F)ccc34)cc2s1 [Example 230, (1R,2R)-2-(6-(7-(trifluoromethoxy)quinolin-4-yloxy)benzo[d]thiazol-2-ylamino)cyclohexanol] | 58% |  | 
